Values quoted from earlier work as cited in article PMC8018653, “Gender-based differences in brain and plasma pharmacokinetics of letrozole in sprague-dawley rats: Application of physiologically-based pharmacokinetic modeling to gain quantitative insights” (PLoS ONE, 2021).

System: P-glycoprotein (P-gp)
Details: cited from earlier work

For `CC(C)(C#N)c1cc(Cn2cncn2)cc(C(C)(C)C#N)c1` [anastrozole], the “substrate for the efflux transporter P-glycoprotein (P-gp)” value is listed as “substrate”.
